Experimental data: US20240360122A1, “POLYMORPHIC FORMS AND SALTS OF A GLP-1R AGONIST” (Terns (Suzhou) Biotechnology Co., Ltd., priority 2023, published 2024)

How the values were obtained:
Format in all cases: physicochemical
[1] = Kinetic solubility in water and bio-relevant media (SGF, FaSSIF, FeSSIF) at 37° C.; details: for FC: Form change: residual solids by XRPD
Experimental: Add 4 mL of medium (H2O, SGF, FaSSIF and FeSSIF). • Rolled at 37° C. (˜25 rpm). Sampling at 1, 2, 4 and 24 hrs. • At each time-point, sampled 0.8 mL of solution or suspension into a centrifuge tube prior to centrifugation (12000 rpm, 37° C., 5 min) and filtration through 0.45 μm PTFE membrane. • Tested pH and concentration for the filtrate. Analyze residual solids by XRPD.
0.1 g of NaCl and 0.05 g of Triton X-100 were weighed into a 50-mL volumetric flask. Purified water was added to dissolve the solid. 67.5 μL HCl (38%, 12M) was added after the solid was dissolved completely. pH was then adjusted to 1.8 using HCl (1 M) or NaOH (1 M). Purified water was added to the volume.
(§1) 0.17 g of anhydrous NaH2PO4, 0.021 g of NaOH and 0.31 g of NaCl were weighed into a 50-mL volumetric flask. ˜48 mL purified water was added to dissolve the solid. pH was adjusted to 6.5 using 1M HCl or 1M NaOH. Purified water was then added to the volume. 0.11 g of SIF powder was added into the volumetric flask.
as §1, with “0.41 mL” for “0.17 g”, “acetic acid, 0.20” for “anhydrous NaH2PO4, 0.021”, “0.59” for “0.31”, “5.0” for “6.5”, “0.56” for “0.11”

[2] = Hygroscopicity by DVS at 25° C.
Experimental: DVS was measured via a SMS (Surface Measurement Systems) DVS Intrinsic. The relative humidity at 25° C. were calibrated against deliquescence point of LiCl, Mg(NO3)2 and KCl.

[3] = Solid state stability at 25° C./60% RH and 40° C./75% RH for 1 week; details: for HPLC peak Area, RRT 1.00: main peak
Experimental: Each sample was added into a glass vial, sealed by parafilm with several holes, and kept under tested conditions. After one week, samples were taken for XRPD and HPLC purity test.

N#Cc1ccc(COc2cccc(C3CCN(Cc4nc5ccc(C(=O)O)cc5n4Cc4cncs4)CC3)n2)c(F)c1 [Fumarate Type A]
FC: Form change ([1]; FaSSIF, 37° C., 1 hr): No | FC: Form change ([1]; FaSSIF, 37° C., 2 hrs): No | FC: Form change ([1]; FaSSIF, 37° C., 4 hrs): No | FC: Form change ([1]; FaSSIF, 37° C., 24 hrs): No | FC: Form change ([1]; FeSSIF, 37° C., 1 hr): No | FC: Form change ([1]; FeSSIF, 37° C., 2 hrs): No | FC: Form change ([1]; FeSSIF, 37° C., 4 hrs): No | FC: Form change ([1]; FeSSIF, 37° C., 24 hrs): No | FC: Form change ([1]; H2O, 37° C., 1 hr): No | FC: Form change ([1]; H2O, 37° C., 2 hrs): No | FC: Form change ([1]; H2O, 37° C., 4 hrs): No | FC: Form change ([1]; H2O, 37° C., 24 hrs): No | FC: Form change ([1]; SGF, 37° C., 1 hr): No | FC: Form change ([1]; SGF, 37° C., 2 hrs): No | FC: Form change ([1]; SGF, 37° C., 4 hrs): No | FC: Form change ([1]; SGF, 37° C., 24 hrs): No | form change of residual solids (XRPD) after solubility test ([1]; all the media (H2O, SGF, FaSSIF, FeSSIF), after 24 hrs): No form change | solubility compared with the other selected salts ([1]; all the media, 37° C.): lowest solubility | water uptake (DVS) ([2]; 25° C./80% RH): 0.12% | hygroscopicity ([2]; DVS, 25° C.): non-hygroscopic | Water uptake at 25° C./80% RH ([2]; DVS, 25° C./80% RH): 0.12 wt % | For change after DVS ([2]; XRPD after DVS test): No | form change after DVS test (XRPD) ([2]; after DVS test): no form change | HPLC peak Area, RRT 0.73 ([3]; 25° C./60% RH, 1 week): 0.14% | HPLC peak Area, RRT 0.80 ([3]; 25° C./60% RH, 1 week): 0.05% | HPLC peak Area, RRT 0.83 ([3]; 25° C./60% RH, 1 week): 1.98% | HPLC peak Area, RRT 0.90 ([3]; 25° C./60% RH, 1 week): 0.10% | HPLC peak Area, RRT 0.99 ([3]; 25° C./60% RH, 1 week): 0.06% | HPLC peak Area, RRT 1.05 ([3]; 25° C./60% RH, 1 week): 0.28% | HPLC peak Area, RRT 1.10 ([3]; 25° C./60% RH, 1 week): 0.89% | HPLC peak Area, RRT 1.12 ([3]; 25° C./60% RH, 1 week): 0.06% | HPLC peak Area, RRT 1.15 ([3]; 25° C./60% RH, 1 week): 0.25% | HPLC peak Area, RRT 1.34 ([3]; 25° C./60% RH, 1 week): 0.07% | HPLC peak Area, RRT 1.00 ([3]; 25° C./60% RH, 1 week): 96.13% | Form change ([3]; 25° C./60% RH/Open/1 week): No | Purity ([3]; 25° C./60% RH/Open/1 week): 96.13 Area % | solid-state stability: form change and purity decrease ([3]; 25° C./60% RH/open and 40° C./75% RH/open, 1 week): no form change or significant purity decrease | HPLC peak Area, RRT 0.73 ([3]; 40° C./75% RH, 1 week): 0.13% | HPLC peak Area, RRT 0.80 ([3]; 40° C./75% RH, 1 week): <0.05% | HPLC peak Area, RRT 0.83 ([3]; 40° C./75% RH, 1 week): 1.89% | HPLC peak Area, RRT 0.90 ([3]; 40° C./75% RH, 1 week): 0.09% | HPLC peak Area, RRT 0.99 ([3]; 40° C./75% RH, 1 week): <0.05% | HPLC peak Area, RRT 1.05 ([3]; 40° C./75% RH, 1 week): 0.29% | HPLC peak Area, RRT 1.10 ([3]; 40° C./75% RH, 1 week): 0.87% | HPLC peak Area, RRT 1.12 ([3]; 40° C./75% RH, 1 week): 0.05% | HPLC peak Area, RRT 1.15 ([3]; 40° C./75% RH, 1 week): 0.26% | HPLC peak Area, RRT 1.34 ([3]; 40° C./75% RH, 1 week): 0.06% | HPLC peak Area, RRT 1.00 ([3]; 40° C./75% RH, 1 week): 96.37% | Form change ([3]; 40° C./75% RH/Open/1 week): No | Purity ([3]; 40° C./75% RH/Open/1 week): 96.37 Area % | HPLC peak Area, RRT 0.73 ([3]; Initial): 0.13% | HPLC peak Area, RRT 0.80 ([3]; Initial): <0.05% | HPLC peak Area, RRT 0.83 ([3]; Initial): 1.91% | HPLC peak Area, RRT 0.90 ([3]; Initial): 0.09% | HPLC peak Area, RRT 0.99 ([3]; Initial): <0.05% | HPLC peak Area, RRT 1.05 ([3]; Initial): 0.27% | HPLC peak Area, RRT 1.10 ([3]; Initial): 0.87% | HPLC peak Area, RRT 1.12 ([3]; Initial): 0.05% | HPLC peak Area, RRT 1.15 ([3]; Initial): 0.24% | HPLC peak Area, RRT 1.34 ([3]; Initial): 0.06% | Purity ([3]; Initial): 96.37 Area % | HPLC peak Area, RRT 1.00 ([3]; Initial): 96.37%
